Read-outs that look alike come from different tables or passages of the source.
Tests used:
Test in all cases: Kinase profiling in a biochemical assay panel (mobility shift assays and ELISA), %-inhibition at 1 μM; selectivity entropy
[1] = biological target: panel of more than 300 wild-type and mutant kinases (313 kinase panel) (Homo sapiens, UniProt P06241); conditions: kinase FYN; compound at 1 μM
[2] = biological target: panel of more than 300 wild-type and mutant kinases (313 kinase panel) (Homo sapiens, UniProt P07333)
[3] = biological target: panel of more than 300 wild-type and mutant kinases (313 kinase panel) (Homo sapiens, UniProt P42685); conditions: kinase FRK; compound at 1 μM
[4] = biological target: T1, panel of more than 300 wild-type and mutant kinases (313 kinase panel) (Homo sapiens, UniProt Q06418)
T1 sequence (Q06418 41-890): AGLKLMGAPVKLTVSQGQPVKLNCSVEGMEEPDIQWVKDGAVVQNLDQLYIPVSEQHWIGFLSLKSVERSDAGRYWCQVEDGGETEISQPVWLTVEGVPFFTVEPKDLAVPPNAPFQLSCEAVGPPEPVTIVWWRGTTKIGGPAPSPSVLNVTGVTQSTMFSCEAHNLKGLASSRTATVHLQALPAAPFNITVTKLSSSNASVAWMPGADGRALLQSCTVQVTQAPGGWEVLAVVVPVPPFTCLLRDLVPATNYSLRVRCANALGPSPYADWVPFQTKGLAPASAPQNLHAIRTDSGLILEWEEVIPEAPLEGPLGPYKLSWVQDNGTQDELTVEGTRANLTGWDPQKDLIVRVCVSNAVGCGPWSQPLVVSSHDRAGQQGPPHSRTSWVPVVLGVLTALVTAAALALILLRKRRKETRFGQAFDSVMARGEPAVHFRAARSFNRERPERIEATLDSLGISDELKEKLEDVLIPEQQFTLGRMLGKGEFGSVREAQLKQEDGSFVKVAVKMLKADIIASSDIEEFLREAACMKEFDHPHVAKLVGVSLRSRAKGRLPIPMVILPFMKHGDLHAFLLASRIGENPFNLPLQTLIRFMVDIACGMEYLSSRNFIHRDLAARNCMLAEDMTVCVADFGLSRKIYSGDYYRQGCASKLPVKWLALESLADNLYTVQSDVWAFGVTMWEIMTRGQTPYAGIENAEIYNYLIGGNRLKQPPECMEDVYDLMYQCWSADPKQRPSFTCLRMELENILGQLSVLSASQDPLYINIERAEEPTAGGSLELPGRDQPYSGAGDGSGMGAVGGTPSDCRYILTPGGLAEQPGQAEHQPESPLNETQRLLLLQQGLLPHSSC

[5] = biological target: panel of more than 300 wild-type and mutant kinases (313 kinase panel) (Homo sapiens, UniProt Q13554)
[6] = biological target: panel of more than 300 wild-type and mutant kinases (313 kinase panel) (Homo sapiens, UniProt Q15208); conditions: kinase NDR1; 1 μM
[7] = biological target: T2, panel of more than 300 wild-type and mutant kinases (313 kinase panel) (Homo sapiens, UniProt Q16832); conditions: kinase DDR2; compound at 1 μM
T2 sequence (Q16832 22-855): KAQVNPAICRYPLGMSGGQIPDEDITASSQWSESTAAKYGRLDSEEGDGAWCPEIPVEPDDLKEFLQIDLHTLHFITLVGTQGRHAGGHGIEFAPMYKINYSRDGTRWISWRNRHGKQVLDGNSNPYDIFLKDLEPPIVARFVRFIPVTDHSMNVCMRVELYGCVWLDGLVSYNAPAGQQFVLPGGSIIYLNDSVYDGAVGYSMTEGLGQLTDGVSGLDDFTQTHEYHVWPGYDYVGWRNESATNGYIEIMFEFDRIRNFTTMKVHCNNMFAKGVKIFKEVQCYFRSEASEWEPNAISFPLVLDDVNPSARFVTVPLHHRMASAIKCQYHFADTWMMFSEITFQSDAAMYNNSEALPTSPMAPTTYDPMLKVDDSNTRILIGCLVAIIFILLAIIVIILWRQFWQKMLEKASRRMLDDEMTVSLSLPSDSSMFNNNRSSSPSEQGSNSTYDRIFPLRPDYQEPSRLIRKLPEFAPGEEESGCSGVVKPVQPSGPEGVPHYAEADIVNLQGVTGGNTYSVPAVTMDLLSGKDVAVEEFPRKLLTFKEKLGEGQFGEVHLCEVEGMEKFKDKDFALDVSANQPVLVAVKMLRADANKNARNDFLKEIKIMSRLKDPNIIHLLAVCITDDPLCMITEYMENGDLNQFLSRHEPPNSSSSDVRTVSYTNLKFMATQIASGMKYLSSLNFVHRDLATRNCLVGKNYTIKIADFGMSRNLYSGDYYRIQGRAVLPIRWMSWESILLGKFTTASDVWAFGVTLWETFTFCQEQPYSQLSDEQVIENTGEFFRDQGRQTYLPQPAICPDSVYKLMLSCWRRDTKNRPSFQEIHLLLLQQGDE

[8] = biological target: panel of more than 300 wild-type and mutant kinases (313 kinase panel) (Homo sapiens, UniProt Q86Z02); conditions: kinase HIPK1; compound at 1 μM
[9] = biological target: panel of more than 300 wild-type and mutant kinases (313 kinase panel) (Homo sapiens, UniProt Q9P0L2)
[10] = test system: panel of more than 300 wild-type and mutant kinases (313 kinase panel)
[11] = kinase EGFR(d746-750), compound at 1 μM
[12] = kinase EGFR(d746-750/T790M), compound at 1 μM
[13] = kinase EML4-ALK, compound at 1 μM

Chain of panel of more than 300 wild-type and mutant kinases (313 kinase panel) (Homo sapiens, UniProt Q9P0L2) (Q9P0L2 whole entry, change not shown): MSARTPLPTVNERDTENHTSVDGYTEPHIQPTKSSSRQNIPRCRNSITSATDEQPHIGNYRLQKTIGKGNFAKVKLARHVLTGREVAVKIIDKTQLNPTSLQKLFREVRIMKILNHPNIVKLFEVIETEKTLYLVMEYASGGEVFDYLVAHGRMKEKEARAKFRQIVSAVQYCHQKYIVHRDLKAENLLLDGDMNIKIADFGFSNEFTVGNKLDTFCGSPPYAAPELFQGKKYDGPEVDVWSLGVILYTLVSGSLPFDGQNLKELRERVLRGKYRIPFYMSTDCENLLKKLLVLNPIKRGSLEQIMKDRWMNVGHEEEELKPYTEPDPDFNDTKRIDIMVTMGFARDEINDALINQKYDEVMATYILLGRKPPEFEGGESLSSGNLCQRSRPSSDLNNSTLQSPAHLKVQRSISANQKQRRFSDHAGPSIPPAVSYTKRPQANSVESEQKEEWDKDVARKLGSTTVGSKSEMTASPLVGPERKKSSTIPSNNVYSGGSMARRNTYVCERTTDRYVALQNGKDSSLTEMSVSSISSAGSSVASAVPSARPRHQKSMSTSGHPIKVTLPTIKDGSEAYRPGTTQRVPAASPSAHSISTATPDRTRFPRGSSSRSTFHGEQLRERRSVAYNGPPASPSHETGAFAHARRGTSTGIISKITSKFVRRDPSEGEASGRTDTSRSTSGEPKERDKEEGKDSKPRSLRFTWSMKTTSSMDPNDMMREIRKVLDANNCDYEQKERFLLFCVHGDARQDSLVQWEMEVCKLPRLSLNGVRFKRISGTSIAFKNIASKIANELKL
Chain of panel of more than 300 wild-type and mutant kinases (313 kinase panel) (Homo sapiens, UniProt Q13554) (Q13554 whole entry, change not shown): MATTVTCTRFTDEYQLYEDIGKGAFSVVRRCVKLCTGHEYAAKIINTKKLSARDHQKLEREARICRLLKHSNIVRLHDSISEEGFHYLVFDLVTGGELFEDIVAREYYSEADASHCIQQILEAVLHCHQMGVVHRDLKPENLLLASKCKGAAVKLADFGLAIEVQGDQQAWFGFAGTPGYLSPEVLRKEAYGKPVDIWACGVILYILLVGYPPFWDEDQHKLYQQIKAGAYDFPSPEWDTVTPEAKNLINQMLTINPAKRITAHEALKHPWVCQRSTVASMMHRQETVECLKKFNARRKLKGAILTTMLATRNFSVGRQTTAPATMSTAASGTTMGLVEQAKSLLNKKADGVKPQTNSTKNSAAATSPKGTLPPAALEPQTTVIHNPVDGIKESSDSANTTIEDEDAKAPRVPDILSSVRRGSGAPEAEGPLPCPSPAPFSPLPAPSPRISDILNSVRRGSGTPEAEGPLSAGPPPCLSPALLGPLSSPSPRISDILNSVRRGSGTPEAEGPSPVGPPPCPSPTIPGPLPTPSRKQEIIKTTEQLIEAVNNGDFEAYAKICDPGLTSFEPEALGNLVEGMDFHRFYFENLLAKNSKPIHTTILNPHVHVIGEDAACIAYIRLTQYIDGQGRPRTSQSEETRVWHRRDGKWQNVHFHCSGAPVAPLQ
Chain of panel of more than 300 wild-type and mutant kinases (313 kinase panel) (Homo sapiens, UniProt P42685) (P42685 whole entry, change not shown): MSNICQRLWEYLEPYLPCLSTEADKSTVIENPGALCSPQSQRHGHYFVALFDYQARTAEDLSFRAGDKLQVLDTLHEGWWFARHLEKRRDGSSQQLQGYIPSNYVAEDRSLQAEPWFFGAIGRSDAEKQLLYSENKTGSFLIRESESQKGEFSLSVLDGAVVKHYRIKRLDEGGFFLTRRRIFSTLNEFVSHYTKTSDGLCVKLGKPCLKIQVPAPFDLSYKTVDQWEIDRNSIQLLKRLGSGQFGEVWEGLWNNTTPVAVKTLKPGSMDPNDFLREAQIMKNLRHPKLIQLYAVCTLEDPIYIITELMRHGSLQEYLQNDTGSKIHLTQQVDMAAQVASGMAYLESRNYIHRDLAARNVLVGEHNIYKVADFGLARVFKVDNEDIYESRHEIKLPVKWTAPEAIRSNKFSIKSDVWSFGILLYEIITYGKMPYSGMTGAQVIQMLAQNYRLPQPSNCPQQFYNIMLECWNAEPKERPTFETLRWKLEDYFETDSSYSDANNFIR
Chain of panel of more than 300 wild-type and mutant kinases (313 kinase panel) (Homo sapiens, UniProt Q15208) (Q15208 whole entry, change not shown): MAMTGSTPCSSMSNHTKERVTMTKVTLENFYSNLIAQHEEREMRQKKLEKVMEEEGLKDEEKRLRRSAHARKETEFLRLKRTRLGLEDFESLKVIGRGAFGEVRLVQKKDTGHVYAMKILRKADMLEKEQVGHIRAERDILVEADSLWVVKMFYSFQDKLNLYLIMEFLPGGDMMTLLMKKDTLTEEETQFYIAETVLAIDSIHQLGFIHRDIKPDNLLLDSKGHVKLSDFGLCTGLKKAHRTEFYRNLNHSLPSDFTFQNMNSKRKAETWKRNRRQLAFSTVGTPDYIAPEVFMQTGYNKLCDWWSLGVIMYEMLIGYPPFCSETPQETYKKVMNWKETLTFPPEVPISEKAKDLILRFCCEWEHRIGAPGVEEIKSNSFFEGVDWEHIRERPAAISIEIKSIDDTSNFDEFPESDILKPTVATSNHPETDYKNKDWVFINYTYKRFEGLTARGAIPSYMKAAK
Chain of panel of more than 300 wild-type and mutant kinases (313 kinase panel) (Homo sapiens, UniProt P06241) (P06241 whole entry, change not shown): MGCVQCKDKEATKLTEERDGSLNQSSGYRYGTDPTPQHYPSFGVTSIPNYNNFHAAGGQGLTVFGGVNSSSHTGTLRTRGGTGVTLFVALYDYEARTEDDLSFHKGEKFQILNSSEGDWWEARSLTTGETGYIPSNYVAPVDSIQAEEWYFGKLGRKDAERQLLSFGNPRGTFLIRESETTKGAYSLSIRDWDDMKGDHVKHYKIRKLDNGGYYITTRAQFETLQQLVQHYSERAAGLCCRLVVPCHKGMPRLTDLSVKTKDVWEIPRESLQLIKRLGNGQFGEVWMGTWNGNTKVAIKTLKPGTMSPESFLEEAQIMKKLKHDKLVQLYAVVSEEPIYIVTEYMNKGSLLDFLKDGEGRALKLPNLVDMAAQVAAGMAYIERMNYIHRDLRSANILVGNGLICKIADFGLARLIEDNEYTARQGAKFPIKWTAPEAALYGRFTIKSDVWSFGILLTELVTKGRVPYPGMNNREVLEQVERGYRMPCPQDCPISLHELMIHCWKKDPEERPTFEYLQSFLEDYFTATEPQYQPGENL

SMILES	%-inhibition of FYN [1] [%]	%-inhibition of FMS ([2]; kinase FMS, compound at 1 μM) [%]	%-inhibition of FRK [3] [%]	%-inhibition of TYRO3 ([4]; kinase TYRO3, compound at 1 μM) [%]	%-inhibition, CaMK2β ([5]; kinase CaMK2β, 1 μM compound) [%]	%-inhibition of NDR1 [6] [%]	%-inhibition of DDR2 [7] [%]	%-inhibition of HIPK1 [8] [%]	%-inhibition of MARK1 ([9]; kinase MARK1, compound at 1 μM) [%]	%-inhibition of EGFR(d746-750) [10, 11] [%]	%-inhibition of EGFR(d746-750/T790M) [10, 12] [%]	%-inhibition of EML4-ALK [10, 13] [%]	%-inhibition of LYNb ([10]; kinase LYNb, compound at 1 μM) [%]	%-inhibition of NPM1-ALK ([10]; kinase NPM1-ALK, 1 μM) [%]	%-inhibition of PKCβ2 ([10]; kinase PKCβ2, 1 μM) [%]	%-inhibition of SRM ([10]; kinase SRM, 1 μM) [%]	%-inhibition of TAK1-TAB1 ([10]; kinase TAK1-TAB1, 1 μM) [%]	%-inhibition, CaMK2β ([5]; 1 µM) [%]	%-inhibition of NPM1-ALK [10] [%]	%-inhibition of LYNb ([10]; 1 µM) [%]	further results
CO[C@H]1C[C@@H]2CC[C@@H](C)[C@@](O)(O2)C(=O)C(=O)N2CCCC[C@H]2C(=O)O[C@H]([C@H](C)C[C@@H]2CC[C@@H](OCCO)[C@H](OC)C2)CC(=O)[C@H](C)/C=C(\C)[C@@H](O)[C@@H](OC)C(=O)[C@H](C)C[C@H](C)/C=C/C=C/C=C/1C [everolimus]	-0.928	-2.3	1.26	-2.32	-10	-7	0	-6	-0.63	-4	-5	-3.62	-1.66	-5.62	-9	0.151	1.54				
O=S(=O)(c1cccc2cnccc12)N1CCCNCC1 [fasudil]	8.5	-3	-3	-1.23	2.58	18	0.102	-3.31	-9												
CS(=O)(=O)CCNCc1ccc(-c2ccc3ncnc(Nc4ccc(OCc5cccc(F)c5)c(Cl)c4)c3c2)o1 [lapatinib]	1.29	-5.46	0.586	13		-0.543	83											-5	-3.28	7	%-inhibition of MARK1 ([9]; 1 µM): 9%; %-inhibition of PKCβ2 ([10]; 1 µM): -6%; %-inhibition of SRM ([10]; 1 µM): 13%
Cc1cn(-c2cc(NC(=O)c3ccc(C)c(Nc4nccc(-c5cccnc5)n4)c3)cc(C(F)(F)F)c2)cn1 [nilotinib]	59		70			-3	102	14	12									-21	-64	85	%-inhibition of FMS ([2]; 1 µM): 52%; %-inhibition of TYRO3 ([4]; 1 µM): -32%; %-inhibition of TAK1-TAB1 [10]: 5%; %-inhibition of EML4-ALK ([10]; 1 µM): -12%; %-inhibition of PKCβ2 ([10]; 1 µM): 1.66%; %-inhibition of SRM ([10]; 1 µM): 27%
CNC(=O)c1cc(Oc2ccc(NC(=O)Nc3ccc(Cl)c(C(F)(F)F)c3)c(F)c2)ccn1 [regorafenib]	55	92	90	34	-9	-9	102	47	-24	12	3.63	-7	85	-7	-9	66	60				
N#CC[C@H](C1CCCC1)n1cc(-c2ncnc3[nH]ccc23)cn1 [ruxolitinib]	11		7	-3		88	49	3										22	65	8	%-inhibition of FMS ([2]; 1 µM): 68%; %-inhibition of TAK1-TAB1 [10]: 6%; %-inhibition of EGFR(d746-750) ([10]; 1 µM): -1.14%; %-inhibition of EGFR(d746-750/T790M) ([10]; 1 µM): 1.32%; %-inhibition of EML4-ALK ([10]; 1 µM): 64%; %-inhibition of PKCβ2 ([10]; 1 µM): 5%; %-inhibition of SRM ([10]; 1 µM): 4.69%
CO[C@H]1C[C@@H]2CC[C@@H](C)[C@@](O)(O2)C(=O)C(=O)N2CCCC[C@H]2C(=O)O[C@H]([C@H](C)C[C@@H]2CC[C@@H](OC(=O)C(C)(CO)CO)[C@H](OC)C2)CC(=O)[C@H](C)/C=C(\C)[C@@H](O)[C@@H](OC)C(=O)[C@H](C)C[C@H](C)/C=C/C=C/C=C/1C [temsirolimus]	-1.39	-1.41	-11	-1.34	-9	-4.55	-4	-0.101	-5	-3	-0.33	-7	-10	-7.57	-1.6	-4	-3.77				
CC(=O)Nc1cccc(-n2c(=O)n(C3CC3)c(=O)c3c(Nc4ccc(I)cc4F)n(C)c(=O)c(C)c32)c1 [trametinib]	9	-4	-3	-2.65	0.738	-1.68	0.612	-3.71	-17	-2.58	1.72	-2.51	-2.58	-1.79	-1.58	-4	5.47				

Source: paper PMC3961306, “Comparison of the Cancer Gene Targeting and Biochemical Selectivities of All Targeted Kinase Inhibitors Approved for Clinical Use” (PLoS ONE, 2014)
